Assay results taken from BindingDB's records for doi:10.1016/s0960-894x(00)00348-6 (Smithkline Beecham Pharmaceuticals, 2000).

Target: Tyrosyl-tRNA synthetase (Staphylococcus aureus)
Assay: Inhibitory activity of compound against tyrosyl tRNA synthetase from Staphylococcus aureus was determined

- IC50: 21 nM
SMILES: N[C@@H](Cc1ccc(O)cc1)C(=O)N[C@@H](C(=O)O)[C@H]1[C@H](O)[C@@H](O)[C@@H](O)CN1O [(R)-[(S)-2-Amino-3-(4-hydroxy-phenyl)-propionylamino]-((2S,3S,4S,5S)-1,3,4,5-tetrahydroxy-piperidin-2-yl)-acetic acid]
